For orientation: Emax means the size of the effect at its maximum, as opposed to the concentration needed. One may read the EC50 as the concentration at which the effect is half-maximal. Read a high EC50 as lower potency in that assay. Broadly, the IC50 is the concentration that gives 50% inhibition. A word on the inhibition: it is how much of the control response was suppressed.

The text below walks through data of paper PMC8839882, “A New Series of Aryloxyacetic Acids Endowed with Multi-Target Activity towards Peroxisome Proliferator-Activated Receptors (PPARs), Fatty Acid Amide Hydrolase (FAAH), and Acetylcholinesterase (AChE)” (Molecules, 2022).

SMILES strings stand for the structures.

Assay [1] concerns the target T1, human PPARγ (hPPARγ) (Homo sapiens, UniProt P37231).
T1 construct: expressed in transfected cells; host or cells: HepG2 (human hepatoblastoma)
T1 sequence (P37231 238-503 limits assumed): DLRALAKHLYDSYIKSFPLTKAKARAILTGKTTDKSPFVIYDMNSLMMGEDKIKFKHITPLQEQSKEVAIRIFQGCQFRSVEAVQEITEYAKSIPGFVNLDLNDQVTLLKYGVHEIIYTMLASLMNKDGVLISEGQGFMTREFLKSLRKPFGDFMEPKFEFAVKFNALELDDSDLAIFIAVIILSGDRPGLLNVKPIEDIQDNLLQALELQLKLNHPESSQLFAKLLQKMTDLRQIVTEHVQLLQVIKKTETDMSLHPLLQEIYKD
Briefly: cell-based. It counts as cell-based. The following applies: for Emax: HepG2, percentage of the maximum fold induction with rosiglitazone (100%); for EC50: PPARγ EC50, GAL4-PPARγ transactivation, HepG2 cells; for PPARγ Emax: percentage of the maximum fold induction with rosiglitazone (100%). An excerpt:
(§1) For this purpose, GAL4-PPAR chimeric receptors were expressed in transiently transfected HepG2 cells according to a previously reported procedure. […] Maximum obtained fold induction with the reference agonist was defined as 100%.
(§2) The expression vectors bearing the chimeric receptor containing the yeast Gal4-DNA binding domain fused to the human PPARα- or PPARγ-LBD, and the reporter plasmid for these Gal4 chimeric receptors (pGal5TKpGL3), comprising five repeats of the Gal4 response elements upstream of a minimal thymidine kinase promoter adjacent to the coding sequence for luciferase, were described in a previous work.
(§3) A culture of the human hepatoblastoma cell line HepG2 (Interlab Cell Line Collection, Genoa, Italy) was conducted in minimum essential medium (MEM) containing 10% heat-inactivated fetal bovine serum, 100 U of penicillin G mL^−1, and 100 μg of streptomycin sulfate mL^−1 at 37 °C in a humidified atmosphere of 5% CO2. For transactivation assays, cells were seeded in a 24-well plate at a concentration of 10^5 cells per well, and were transfected after 24 h with CAPHOS, a calcium phosphate method, according to the manufacturer’s guidelines. Cell transfection was performed using expression plasmids encoding the fusion protein Gal4−PPARα-LBD or Gal4−PPARγ-LBD (30 ng), pGal5TKpGL3 (100 ng), and pCMVβgal (250 ng). Following transfection, cells were incubated for 4 h, after which they underwent treatment with the indicated ligands in triplicate for 20 h. Cell extracts were subsequently analyzed for luciferase activity via luminometry (VICTOR^3 V multilabel plate reader, PerkinElmer). Ortho-nitrophenyl-β-D-galactopyranoside was used to measure β-Galactosidase activity, following a previously described method. All transfection experiments were performed at least twice.

Assay [2] deals with T2, human PPARα (hPPARα) (Homo sapiens, UniProt Q07869).
T2 construct: expressed in transfected cells; host or cells: HepG2 (human hepatoblastoma)
T2 sequence (Q07869 239-466 limits assumed): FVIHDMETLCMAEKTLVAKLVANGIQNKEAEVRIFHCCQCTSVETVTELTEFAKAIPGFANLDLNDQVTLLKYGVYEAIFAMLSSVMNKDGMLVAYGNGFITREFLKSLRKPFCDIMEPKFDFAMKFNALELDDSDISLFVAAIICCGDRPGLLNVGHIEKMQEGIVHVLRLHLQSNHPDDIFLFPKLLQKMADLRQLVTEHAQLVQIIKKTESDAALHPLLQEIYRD
Briefly: GAL4-PPARα transactivation assay in transiently transfected HepG2 cells. The class given is cell-based. The note with it: for Emax: HepG2.
Description: as §1, §2, §3

For assay [3], the target named is T3, Aβ40 (Homo sapiens, UniProt P05067).
T3 construct: purchased EZBiolab
T3 sequence (P05067 672-711): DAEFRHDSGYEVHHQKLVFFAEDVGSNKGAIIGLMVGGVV
Briefly: Inhibition of Aβ40 aggregation, thioflavin T (ThT) fluorescence-based method. The class given is biochemical. The note with it: Aβ40 30 µM, 2% HFIP, PBS pH 7.4, mean ± SEM; for Aβ40 Aggr. i% @100 µM (percent of inhibition): inhibitor 100 µM; for inhibition at 100 µM: pH 7.4, inhibitor 100 µM, read-out: Aβ40 Aggr. i% @100 µM (percent of inhibition). The procedure: As regards Aβ peptide aggregation, in vitro inhibition was assessed following a previously reported thioflavin T (ThT) fluorescence-based method involving the use of hexafluoroisopropanol (HFIP) as an aggregation enhancer. […] Also, the presence of a polar carboxylic group seems to impair the antiaggregating activity. However, even the low efficacy of these compounds might be considered as a good starting point for the development of a suitable molecular scaffold endowed with the desired multi-target activity.
A previously described method for the spectrofluorimetric assays measuring ThT fluorescence in the presence of Aβ was used. Co-incubation samples were prepared in 96-well black, non-binding microplates (Greiner Bio-One GmbH, Frickenhausen, Germany) by diluting Aβ40 (EZBiolab, Carmel, IN, USA) and inhibitors to a final concentration of 30 and 100 µM respectively in PBS (pH 7.4) containing 2% 1,1,1,3,3,3-hexafluoro-2-propanol (HFIP). After 2 h of incubation at 25 °C, 25 µM ThT solution was added and fluorescence was determined with a multi-plate reader Infinite M1000 Pro (Tecan, Cernusco S.N., Italy). Assays were carried out in triplicate and values are reported as mean ± SEM.

Assay [4] addresses T4, FAAH Human recombinant (Homo sapiens, UniProt O00519).
T4 construct: purchased Cayman Chemical
T4 sequence (O00519 1-579): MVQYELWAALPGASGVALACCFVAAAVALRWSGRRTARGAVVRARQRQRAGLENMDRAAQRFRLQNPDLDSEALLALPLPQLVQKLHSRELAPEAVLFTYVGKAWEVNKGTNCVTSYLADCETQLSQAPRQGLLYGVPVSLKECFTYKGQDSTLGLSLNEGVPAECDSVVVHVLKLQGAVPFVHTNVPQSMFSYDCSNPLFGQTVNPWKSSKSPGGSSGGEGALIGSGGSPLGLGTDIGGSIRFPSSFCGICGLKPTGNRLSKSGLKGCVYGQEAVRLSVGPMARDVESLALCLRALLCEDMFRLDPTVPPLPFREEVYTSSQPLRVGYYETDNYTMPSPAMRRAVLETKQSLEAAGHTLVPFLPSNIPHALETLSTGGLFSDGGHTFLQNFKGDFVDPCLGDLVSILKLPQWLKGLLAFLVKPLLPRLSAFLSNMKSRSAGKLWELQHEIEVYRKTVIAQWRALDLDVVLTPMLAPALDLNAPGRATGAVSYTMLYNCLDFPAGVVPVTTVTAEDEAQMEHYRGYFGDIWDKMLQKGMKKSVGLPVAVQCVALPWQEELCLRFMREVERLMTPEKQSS
Briefly: FAAH inhibition assay (fluorometric, AMC-AA substrate). It counts as biochemical. The following applies: human recombinant enzyme, AMC-AA 5 µM substrate; mean ± SEM. On the procedure: Eight compounds out of thirteen were tested for FAAH inhibition by using the human recombinant enzyme, JZL-195, as a reference compound, and AMC-AA as a substrate. […] To assess the activity of our compounds as FAAH inhibitors, 96-well black flat-bottom microtiter NBS plates (COSTAR flat black) were used. The assay was conducted in a total volume of 200 µL, with different concentrations of each tested compound (in triplicate) being preincubated for 10 min at room temperature in an appropriate fluorometric assay buffer (tris-HCl 125 mM, Na2EDTA·2H2O 1 mM, pH = 9.0) also containing the enzyme (FAAH Human recombinant, Cayman Chemical, Ann Arbor, MI, USA), while the plate was being kept in orbital shaking. Following this, the substrate (7-amino-4-methyl-2H-1-benzopyran-2-one-5Z,8Z,11Z,14Z-eicosatetraen-amide, AMC-AA, 5 µM final concentration) was added, and the plate was incubated for 2 h at 37 °C in a TECAN infinite M1000Pro plate reader (Tecan, Männedorf, Switzerland), reading the signal from each well every 30 s (λex = 340 nm, λem = 450 nm) and thus expressing FAAH activity as relative fluorescence units (RFU). The percent inhibition for each tested compound was calculated using control wells lacking the inhibitor and blank wells lacking both inhibitor and enzyme. IC50 values were calculated using GraphPad Prism 5.0 (GraphPad Software, La Jolla, CA, USA) and are expressed as mean ± SEM of at least two independent measurements performed in triplicate.

In assay [1], `CC(Oc1ccc(-c2ccccc2)cc1)(C(=O)O)c1ccccc1` (racemic) [Compound 5, (4-Phenylphenoxy)-2-phenylpropanoic acid] showed a maximum response (Emax) of 39 ± 7% and an EC50 of 2.5 ± 0.6 µM. In assay [2], this compound came in with an EC50 of 0.46 ± 0.04 µM and a maximal effect (Emax) of 105 ± 10%.
For `CC(Oc1ccc(Br)cc1)(C(=O)O)c1ccccc1` (racemic) [Compound 11, (4-Bromophenoxy)-2-phenylpropanoic acid] the same measures were 21 ± 2%, 13.8 ± 3.8 µM, 0.73 ± 0.12 µM and 97 ± 1%.
As to `C[C@](Oc1ccc(-c2ccccc2)cc1)(C(=O)O)c1ccccc1` [(R)-5, (R)-(4-Phenylphenoxy)-2-phenylpropanoic acid], the “Aβ40 Aggr. i% @100 µM (percent of inhibition)” value in assay [3] is given as 39 ± 3%. In addition, in assay [1], the EC50 came out at 7.9 ± 2.5 µM and the “PPARγ Emax” value was determined as 14 ± 3%. Besides, in assay [4], the IC50 was 6 ± 0.8 µM.
The matching figures for `C[C@](Oc1ccc(Br)cc1)(C(=O)O)c1ccccc1` [(R)-11, (R)-(4-Bromophenoxy)-2-phenylpropanoic acid]: 44 ± 4%, 22 ± 4 µM, 15.1 ± 2.5% and 6.8 ± 1.9 µM.
Consider `C[C@@](Oc1ccc(-c2ccccc2)cc1)(C(=O)O)c1ccccc1` [(S)-5, (S)-(4-Phenylphenoxy)-2-phenylpropanoic acid], for which the inhibition at 100 µM in assay [3] was 37 ± 5%. Further, in assay [1] (GAL4-PPARγ transactivation), the “PPARγ agonist behaviour (in words)” value is on record as “partial agonist”. In assay [1], the EC50 amounted to 1.54 ± 0.24 µM and the “PPARγ Emax” value was found to be 38.7 ± 3.4%. Also, in assay [2], the EC50 stood at 0.126 ± 0.011 µM and the maximum response (Emax) is 86 ± 4%. For the same compound, in assay [2] (GAL4-PPARα transactivation), the “PPARα agonist behaviour (in words)” value was “full agonist”. In assay [4], the half-inhibitory concentration (IC50) amounted to 5.3 ± 2 µM.
On to `C[C@@](Oc1ccc(Br)cc1)(C(=O)O)c1ccccc1` [(S)-11, (S)-(4-Bromophenoxy)-2-phenylpropanoic acid], for which the inhibition at 100 µM in assay [3] stood at 35 ± 4%. For the same compound, in assay [1], the EC50 came to 3.9 ± 0.5 µM and the “PPARγ Emax” value stood at 40 ± 1.3%. In assay [2], this compound showed an EC50 of 0.233 ± 0.034 µM and a maximum response (Emax) of 77 ± 4%. In addition, the concentration for half-maximal inhibition (IC50) in assay [4] turned out to be 10 ± 1.8 µM.
Turning to `CC(C)(Oc1ccc(-c2ccccc2)cc1)C(=O)O` [Compound 3, (4-Phenylphenoxy)-2-methylpropanoic Acid], the inhibition at 100 µM in assay [3] is 29 ± 4%. In addition, the maximum response (Emax) in assay [1] worked out at 9.6 ± 1.7%; in assay [2], 69 ± 5%. In addition, the concentration for a half-maximal effect (EC50) in assay [1] was 14.6 ± 3.5 µM; in assay [2], 2.4 ± 0.4 µM. Further, the IC50 in assay [4] worked out at 7.6 ± 0.9 µM.
